One compound from publication PMC12381739, “Druglike Molecular Degraders of the Oncogenic RNA-Binding Protein HuR” (JACS Au, 2025) can be followed below.

The subject of data set [1] is Bcl2 and FOXQ1 mRNA. Briefly: mRNA RT-qPCR of Bcl2 and FOXQ1 in MCF-7 cells. In kind it is cell-based, human. The conditions noted are these: MCF-7, concentrations ranging from 1 nM to 100 nM. How it is done: MCF-7 cells were seeded into 12-well plates (∼150,000 cells per well) at 60–70% confluency incubated for 12 h. The cells were then treated with different synthesized compounds at the indicated concentrations or with vehicle control for 24 and 48 h. After treatment, total RNA was extracted using the QuickRNA Miniprep Kit (Zymo Research) according to the manufacturer’s protocol, including DNase I treatment. Reverse transcription was performed on 1 μg of total RNA using the qScript cDNA Synthesis Kit (Quantabio) following the manufacturer’s instructions. Approximately 30 ng of cDNA were used for each qPCR reaction, which was carried out using the Luna Universal qPCR Master Mix (New England BioLabs, cat# E3010G) on a CFX Opus 384 Real-Time PCR System. Relative expression levels of Bcl-2 and FOXQ1 were calculated by normalizing to GAPDH expression using the ΔΔCt method.

Data set [2] concerns Bcl2. Nature of the data set: Bcl2 protein expression by western blot in MDA-MB-231 cells. The note with it: MDA-MB-231, 10 nM, 24 h. Type of data set: cell-based, human. The protocol: (§1) The hook effect was again observed in Bcl2 protein expression, underscoring the functional link between HuR and Bcl2.
(§2) MDA-MB-231 and MCF-7 cells were seeded in 6-well plates at approximately 60% confluency in complete growth medium and treated with synthesized compounds at the indicated concentrations or with vehicle for 24 h. Total protein was extracted using RIPA cell lysis buffer (BioPrep) containing a protease inhibitor, and protein concentration was measured using the BCA protein assay (Sigma-Aldrich) according to the manufacturer’s protocol. Approximately 30 μg of total protein were resolved on a 12% SDS-acrylamide gel and transferred to a PVDF membrane (Immobilon FL transfer membrane; Merck). The membrane was washed with 1× Tris-buffered saline (TBS) containing 0.1% (v/v) Tween-20 (TBST; Tris-base, pH 7.6, NaCl, and Tween-20) and blocked in 1× TBST containing 5% (w/v) BSA for 2 h at room temperature. […] The fold change in the expression of the target proteins (HuR or Bcl2) was calculated by normalizing the band intensity to the Vinculin band intensity using ImageJ.

The subject of data set [3] is MCF-7 spheroids. Briefly: 3D spheroid growth model, MCF-7. In kind it is cell-based, human. The note with it: 10 nM. How it is done:
(§3) MDA-MB-231 and MCF-7 breast cancer cells were cultured in standard tissue culture plates using RPMI or DMEM media supplemented with 10% fetal bovine serum (FBS) and 1% penicillin–streptomycin until they reached approximately 80% confluency. Cells were washed with PBS and dissociated using 0.25% Trypsin-EDTA, followed by neutralization with complete medium. Viability was assessed via trypan blue exclusion, ensuring >90% viable cells. For spheroid formation, cells were seeded into ultralow attachment 96-well plates at a density of 5000 cells/well in 200 μL of complete medium. Plates were centrifuged at 1000 rpm for 5 min to promote aggregation and incubated at 37 °C in a humidified 5% CO2 atmosphere. Spheroid formation was monitored daily using an inverted microscope. Media exchanges or treatment additions were performed by carefully aspirating 100 μL of medium from each well and replacing it with an equal volume of fresh or treatment-containing medium. Differences in spheroid characteristics between the two cell lines were noted: MCF-7 cells, being epithelial and E-cadherin positive, formed compact, uniform spheroids at lower seeding densities (1000–5000 cells/well) over 3–5 days, whereas MDA-MB-231 cells, which lack E-cadherin, required higher densities (5000–10,000 cells/well) and formed looser aggregates typically within 2–4 days. All experiments were performed in duplicates. Surface area was calculated using Image View’s multipoint connection function.

In data set [4] the test system is MCF-7 cells. Nature of the data set: Caspase-Glo 3/7 apoptosis assay. Type of data set: cell-based, human. The note with it: MCF-7, 10 nM. From the text:
(§4) To elucidate the decrease in cell viability observed, we evaluated the potential increase in apoptosis using the […] Caspase-Glo 3/7 assay system. Upon cell lysis, active caspases cleave a luminogenic substrate, releasing aminoluciferin, which is subsequently converted to light by luciferase. The intensity of the signal directly correlates with the levels of apoptosis. […] This destabilization reduces the levels of proteins essential for cancer cell survival, resulting in cumulative cellular stress, diminished proliferation, and enhanced cytotoxicity. […] This enhanced effect is likely due to the catalytic nature of the molecular glue degraders, offering promising potential for cancer treatment.
MCF-7 cells were seeded in 96-well plates to 80% confluency and treated with synthesized compounds at four concentrations (1 nM–1 μM) for 24 and 48 h. Cell apoptosis was analyzed using the Caspase-Glo 3/7 Assay System (Promega, G8090). Each sample was incubated with Caspase-Glo 3/7 solution for 1 h, followed by luminescence measurement. Luminescence was measured […] using the Synergy H1 Hybrid Multi-Mode Microplate Reader (Biotek, Agilent). Cell apoptosis was calculated as the percent increase in luminescence of treated cells compared to untreated controls. All experiments were performed in triplicate.

The test system of data set [5] is MCF-7 cells. Nature of the data set: Crystal violet viability assay in MCF-7 cells. In kind it is cell-based, human. The note with it: MCF-7, 10 nM and 10 μM, 48 h.
Text: as §4
[…] After treatment, the medium was removed, and cells were gently washed with PBS to remove any residual media. Cells were then fixed by adding 100 μL of 100% cold methanol and incubating for 10 min. The methanol was aspirated, and the cells were allowed to air-dry fully. The cells were stained with 50 μL of 0.1% crystal violet for 10 min, after which excess crystal violet was aspirated and the cells were washed with PBS. To quantify cell viability, 100 μL of 33% acetic acid was added to each well to solubilize the bound dye. […] was then measured at 590 nm using Synergy H1 Hybrid Multi-Mode Microplate Reader (Biotek, Agilent). […]

The subject of data set [6] is MDA-MB-231 spheroids. Briefly: 3D spheroid growth model, MDA-MB-231. Type of data set: cell-based, human. The conditions noted are these: 10 nM. How it is done:
as §3

For data set [7], the system named is Bcl2. Briefly: Bcl2 protein expression by western blot in MCF-7 cells. Type of data set: cell-based, human. The conditions noted are these: MCF-7, 10 nM, 24 h. The protocol:
as §1, §2

Data set [8] deals with MCF-10A. Briefly: Crystal violet viability assay in MCF-10A cells. Type of data set: cell-based. The note with it: 10 nM or 10 μM, 48 h.
Text: as §4
RNF-126 recruiter for 48 h, measured using crystal violet. (B) Viability assay of MCF-10A cells
126 recruiter for 48 h, measured using crystal violet.
(1 picture or pasted object on this page, not shown here)

In the case of `CCOC(=O)c1cc2cc(NC(=O)/C=C/C(=O)c3ccc(OC)cc3)ccc2[nH]1` [MG-HuR2], in data set [1], the “Bcl2 and FOXQ1 mRNA expression” value was “decrease in the expression of both genes”. Moreover, the results for the “reduction of Bcl2 protein expression” value in data set [2] and in data set [7] were 45% and 88%, respectively. The spheroid growth result in data set [3] and in data set [6] was “inhibited spheroid growth after 2 days” each time. Further, in data set [4], the “apoptosis (caspase 3/7)” value is listed as “significant increase in apoptosis”. The “cytotoxicity / cell viability (crystal violet)” value in data set [5] is “exhibited cytotoxic activity”. Also, the “cytotoxicity / viability in nontumorigenic cells” value in data set [8] was “No significant cytotoxicity or change in viability”.
